The values that follow come from US8034800B2, “Antiviral macrocycle derivatives and metal complexes, incorporating bridged macrocycles” (University of Hull, priority 2004, dated 2011).

One series has as its target CXCR4 chemokine receptor (Homo sapiens, UniProt P61073). Kind of series: Competition with CXCR4 binding antibodies, flow cytometry. The conditions noted are these: competition with anti-human CXCR4 mAb (44708.111), serial dilutions of compound added simultaneously with antibody. The method, then: (§1) The antibodies used in this study were: unconjugated mouse anti-human CXCR4 mAbs clones 44708.111, 44716.111, PE-conjugated clone 44717.111 and 12G5 (R&D Systems Europe, Abingdon, UK). Cells were preincubated with 20 μM of the compound for 30 mins. Thereafter cells were incubated with each of the mAbs for a further 60 mins. In the case of the direct binding assay, serial dilutions of the compound were added simultaneously with the antibody (44708.111). Cells were then incubated with a secondary fluorescein isothiocyanate-conjugated anti-mouse antibody (IgG-FITC) (Serotec, UK) for 30 mins. Cell samples were analysed by a FACScan flow cytometer (BD Biosciences Europe. Erembodegem, Belgium). Data were acquired and analysed with CellQuest software (Becton Dickinson) on an Apple Macintosh computer. Relative percentage inhibitions were calculated from the mean fluorescent intensity of the whole cell population and relative inhibitory concentration (IC) values were obtained by non linear regression analyses using the Graphpad prism software.
In general terms: A flow cytometer gives signals particle by particle.

The subject of another series is HIV-2 (ROD). Description: Anti-HIV activity in MT-4 cells, tetrazolium viability, HIV-2. The class given is cell-based. The following applies: Human immunodeficiency virus 2, MT4, 120 h, 5 d, read-out: av IC50. From the text:
(§2) Anti-HIV activity and cytoxicity measurements in MT-4 cells were based on viability of cells that had been infected or not infected with HIV-1 (IIIB) and HIV-2 (ROD) ×4 strainsexposed to various concentrations of the test compound [following the procedure of S. Harada et al., Science, 1985, 229, 563]. The MT-4 cells were allowed to proliferate for 5 d after which time the number of viable cells was quantified by a tetrazolium-based colorimetric method [described by R. Pauwels et al., Journal of Virology Methods, 1988, 20, 309.]

For another series, the system named is HIV-1 (IIIB). Kind of series: Anti-HIV activity in MT-4 cells, tetrazolium viability, HIV-1. Format: cell-based. The following applies: Human immunodeficiency virus 1, MT4, 120 h, 5 d, read-out: av IC50.
From the text: as §2

Series [1] in a line: Cytotoxicity in MT-4 cells, tetrazolium viability. Format: cell-based. The following applies: human, printed in HIV-1 line, read-out: av CC50.
From the text: as §2

For a further series, the system named is MT-4 cells. Description: Cytotoxicity in MT-4 cells, tetrazolium viability. Format: cell-based. The following applies: 5 d, printed in HIV-2 line, read-out: av CC50.
From the text: as §2

The target in a further series is T1, CXCR4 receptor (Homo sapiens, UniProt P61073).
T1 construct: endogenous in cells; host or cells: Jurkat cells
T1 sequence (P61073 whole entry): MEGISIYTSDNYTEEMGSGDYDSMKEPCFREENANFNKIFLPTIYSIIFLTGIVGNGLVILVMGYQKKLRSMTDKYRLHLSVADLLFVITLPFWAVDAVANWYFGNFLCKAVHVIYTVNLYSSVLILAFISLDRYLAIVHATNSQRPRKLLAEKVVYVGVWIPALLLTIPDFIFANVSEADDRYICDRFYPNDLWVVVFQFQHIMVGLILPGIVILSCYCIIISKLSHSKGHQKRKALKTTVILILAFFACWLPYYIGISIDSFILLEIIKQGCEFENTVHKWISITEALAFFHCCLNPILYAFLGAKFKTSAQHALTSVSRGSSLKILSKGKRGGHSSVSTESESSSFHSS
Description: Binding of rhodamine-tagged macrocycles to jurkat cells, flow cytometry. The following applies: FIG. 1 / FIG. 2. The method, then: Two monocyclam compounds were tagged with rhodamine and specific binding to the CXCR4 receptor was analysed by incubating with jurkat cells. Cell samples were analysed by flow cytometry as described in example 8, below.
as §1

Some results are limits rather than exact numbers.

CXCR4 chemokine receptor, sequence (P61073 whole entry): as above

For orientation: IC50 means the point on the concentration scale where inhibition reaches its midpoint. As a reminder, the IC90 is the concentration needed for an effect of 90%. A higher IC90 goes with a need for much substance. One may read the CC50 as the concentration giving 50% cytotoxicity. For `c1cc(CN2CCCN3CCN(CCCNCC2)CC3)ccc1CN1CCCN2CCN(CCCNCC1)CC2` [Compound 16], the IC50 is 17 µM at CXCR4 chemokine receptor, 23.2 µM in the series on HIV-2 (ROD) and 6.98 µM with HIV-1 (IIIB). On CXCR4 chemokine receptor, this compound gave an IC90 greater than 17 µM. Further, the CC50 at 5 d in series [1] was greater than 225 µM. In addition, the CC50 with MT-4 cells was greater than 225 µM.
On to `CCN(CC)c1ccc2c(-c3ccc(NC(=S)Nc4ccc(CN5CCCN6CCN(CCCNCC5)CC6)cc4)cc3C(=O)O)c3ccc(=[N+](CC)CC)cc-3oc2c1` [Rhodamine-Bridged Macrocycle Conjugate], for which the “binding to the CXCR4 chemokine receptor (flow cytometry histogram)” value at CXCR4 receptor is “binding of the chelator to the CXCR4 chemokine receptor”.
